Reference: US20200216800A1, “CELL CULTURE MEDIUM FOR PRODUCING TARGET MATERIAL AT HIGH EFFICIENCY BY USING MAMMALIAN CELLS, CELL CULTURING METHOD USING SAME, AND METHOD OF PRODUCING TARGET MATERIAL” (priority 2015, published 2020)
Marks after values point to notes of the source that are not given here.

Tests used:
Type in all cases: cell-based, Chinese hamster
rCHO-2 cells = assay: Suspension culture of rCHO-2 cells: antibody level by sandwich ELISA; conditions: HY-CDM, Zn around 60-75 μM
Description: (§1) Two recombinant CHO DG44 cell lines (hereinafter referred to as “rCHo-1” and “rCHO-2”) were used for monoclonal antibody (mAB) production. Each cell line was passaged 8 times or more and suspension adapted in a protein-free medium (HY-PFM, in-house) or chemically defined medium (HY-CDM, in-house). The suspension-adapted cell line was used to evaluate how the concentrations of trace elements, the selection of an effective trace element, and the concentration of ZnSO4.7H2O (Zn) affected the growth of cells and the production of antibody in commercial chemically defined media.
The cell line was inoculated at a density of 4×10^5 cells/ml and cultured in an Erlenmeyer flask with a 30 ml/125 ml working volume on an orbital shaker at 120 rpm under humidified conditions at 37° C. and 5% CO2. […] The subcultured cells were evaluated.
4, 6, 8, 10, and 12 days after cells were inoculated under the experimental conditions, cell culture fluids were sampled, centrifuged at 1,000 rpm (×162 g) for 5 min, and stored at −20° C. before antibody analysis. Antibody levels were measured by sandwich enzyme linked immunosorbent assay (ELISA). […] For antibody level analysis, absorbance values were measured at a wavelength of 450 nm using a kinetic microplate reader (Molecular Devices, Sunnyvale, Calif., USA).

rCHO-1 cells [1] = assay: Suspension culture of rCHO-1 cells: density of live cells, growth and longevity (hemocytometer, trypan blue dye exclusion)
Description: as §1
(§2) The cell line was inoculated at a density of 4×10^5 cells/ml and cultured in an Erlenmeyer flask with a 30 ml/125 ml working volume on an orbital shaker at 120 rpm under humidified conditions at 37° C. and 5% CO2. Before inoculation, the cells were centrifuged at 1,000 rpm (×162 g) for 5 min, the supernatant was discarded, and the remaining cells were dispersed into single cells in the heated medium. The cells were passaged three times to minimize the influence of the remaining medium under the experimental conditions. The subcultured cells were evaluated.
The density of live cells was analyzed using a hemocytometer (Neubauer improved bright-line, Marienfeld, Germany), an inverted microscope (CK30, Olympus, Japan), and trypan blue dye exclusion.

rCHO-1 cells [2] = assay: Suspension culture of rCHO-1 cells: antibody level by sandwich ELISA
Description: as §1, §2
4, 6, 8, 10, and 12 days after cells were inoculated under the experimental conditions, cell culture fluids were sampled, centrifuged at 1,000 rpm (×162 g) for 5 min, and stored at −20° C. before antibody analysis. Antibody levels were measured by sandwich enzyme linked immunosorbent assay (ELISA). For the detection of mAB by ELISA, anti-human IgG (Fab specific) (I5260, Sigma, St. Louis, Mo., USA) was used as a primary antibody and human IgG (Fc specific)-horseradish peroxidase (A0170, Sigma) was used as a chromogenic antibody. 1% (w/v) bovine serum albumin/phosphate buffered saline was used for blocking, 3,3′,5,5′-tetramethylbenzidine (TMB) solution (KPL, Gaithersburg, Md., USA) was used as a chromogenic reagent. The chromogenic reaction was stopped with 2 M H2SO4. For antibody level analysis, absorbance values were measured at a wavelength of 450 nm using a kinetic microplate reader (Molecular Devices, Sunnyvale, Calif., USA).

[3] = HY-PFM, trace element individually added in 20-fold amount of control
[4] = commercial CDM-1, 2 and 3, Zn ions enhanced to 60 μM
[5] = HY-CDM, Zn around 60-75 μM, rCHO-1

O.O.O.O.O.O.O.O=S(=O)([O-])[O-].[Zn+2] [Zn, ZnSO4.7H2O]
antibody production compared to control group (rCHO-2 cells): 1.3 fold | antibody production rate (maximum) (rCHO-2 cells): 210 mg/L | cell longevity (cell viability of 80%), times higher than control group (rCHO-1 cells [1]; HY-CDM, Zn 60 μM): 1.8 times | live cell densities (rCHO-1 cells [1]; HY-PFM and HY-CDM, Zn 60 μM): 9×10^6 cells/ml | period for which live cell density was maintained during cell culture (rCHO-1 cells [1]; HY-PFM and HY-CDM, Zn 60 μM): at least 9 days | cell longevity (cell viability of 80%), times higher than control group (rCHO-1 cells [1]; HY-PFM, Zn 60 μM): 1.4 times | maximum cell density (rCHO-1 cells [1]; [3]): 1.1×10^7 cells/ml | Cell longevity (day/80% viability) (rCHO-1 cells [1]; Zn 3 μM (control level), CDM): 5.1 ± 0.0 days | μ (rCHO-1 cells [1]; Zn 3 μM (control level), CDM): 1.01 ± 0.04 day⁻¹ | Cell longevity (day/80% viability) (rCHO-1 cells [1]; Zn 3 μM (control level), PFM): 6.2 ± 0.0 days | μ (rCHO-1 cells [1]; Zn 3 μM (control level), PFM): 0.87 ± 0.01 day⁻¹ | Cell longevity (day/80% viability) (rCHO-1 cells [1]; Zn 60 μM, CDM): 9.3 ± 0.4 days | μ (rCHO-1 cells [1]; Zn 60 μM, CDM): 1.00 ± 0.00 day⁻¹ | Cell longevity (day/80% viability) (rCHO-1 cells [1]; Zn 60 μM, PFM): 8.5 ± 0.2 days | μ (rCHO-1 cells [1]; Zn 60 μM, PFM): 0.90 ± 0.02 day⁻¹ | inhibitory effect on cell growth (rCHO-1 cells [1]; Zn ion concentration enhanced to 30-60 μM, recombinant CHO cell lines): no inhibitory effect on cell growth | inhibition of cell growth (rCHO-1 cells [1]; [4]): No inhibition of cell growth was observed | qmAB at the initial stage of cell culture (0-4 days) (rCHO-1 cells [2]; HY-CDM, Zn 60 μM): 5.1 pcd | antibody production compared to control group (rCHO-1 cells [2]; [5]): 6.6 fold | antibody production rate (maximum) (rCHO-1 cells [2]; [5]): 440 mg/L | increase in antibody production compared to control group (rCHO-1 cells [2]; HY-PFM and HY-CDM, Zn 60 μM): ≥ 2 fold | qmAB at the initial stage (0-4 days), times those in control group (rCHO-1 cells [2]; HY-PFM and HY-CDM, Zn 60 μM vs 3 μM): at least 1.7 times | qmAB at the initial stage of cell culture (0-4 days) (rCHO-1 cells [2]; HY-PFM, Zn 60 μM): 9.4 pcd | antibody production (maximum) (rCHO-1 cells [2]; HY-PFM, Zn 45-60 μM): 360 mg/L | antibody production relative to control group (rCHO-1 cells [2]; HY-PFM, Zn 45-60 μM vs control (3 μM)): twice | maximum antibody level (rCHO-1 cells [2]; [3]): 260 mg/L | qmAB (ped, 0-4 days) (rCHO-1 cells [2]; Zn 3 μM (control level), CDM): 3.07 ± 0.19 ped | qmAB (ped, 4-8 days) (rCHO-1 cells [2]; Zn 3 μM (control level), CDM, calculated from the results obtained 4-6 days after cell culture): 1.47 ± 0.10^a ped | qmAB (ped, 0-4 days) (rCHO-1 cells [2]; Zn 3 μM (control level), PFM): 4.99 ± 0.13 ped | qmAB (ped, 4-8 days) (rCHO-1 cells [2]; Zn 3 μM (control level), PFM): 1.75 ± 0.01 ped | qmAB (ped, 0-4 days) (rCHO-1 cells [2]; Zn 60 μM, CDM): 5.06 ± 0.07 ped | qmAB (ped, 4-8 days) (rCHO-1 cells [2]; Zn 60 μM, CDM): 3.30 ± 0.01 ped | qmAB (ped, 0-4 days) (rCHO-1 cells [2]; Zn 60 μM, PFM): 9.35 ± 0.11 ped | qmAB (ped, 4-8 days) (rCHO-1 cells [2]; Zn 60 μM, PFM): 3.74 ± 0.04 ped | effectiveness in producing antibody by batch culture (rCHO-1 cells [2]; Zn ion concentration enhanced to 30-90 μM, recombinant CHO cell lines): very effective in producing antibody by batch culture | specific production rates of antibody (rCHO-1 cells [2]; Zn ions enhanced to 30 μM, protein-free and chemically defined media, recombinant CHO cell lines): improved | qmAB at the late stage (4-8 days), times higher than control group (rCHO-1 cells [2]; both media (HY-PFM, HY-CDM), Zn 60 μM vs 3 μM): 2.1 times | antibody productivities, times higher than control group (rCHO-1 cells [2]; [4]): 1.2-1.5 times | cell growth and antibody production (rCHO-1 cells [2]; commercial CDM-4 (CD OptiCHO), Zn ions enhanced to 60 μM): only continuous cell growth and antibody production was observed
